The source of these data is patent US20150087673A1, “METHODS FOR USING AND BIOMARKERS FOR AMPK-ACTIVATING COMPOUNDS” (RIGEL PHARMACEUTICALS, INC., priority 2013, published 2015).

In this test the test system is AMPK. Kind of test: AMPK activation assay (enzyme-linked immunosorbent assay). The format is cell-based. In a few lines: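 Compounds were tested for their capacity to activate the kinase using standard, commercially available kit reagents and procedures.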
Molecule `N#Cc1ccc(O[C@H]2CC[C@@H](NC(=O)c3ccc(C(=O)N4CCC(Oc5ccc(F)cc5)CC4)cn3)CC2)cc1` [Compound 167, N-((cis)-4-(4-cyanophenoxy)cyclohexyl)-5-(4-(4-fluorophenoxy)piperidine-1-carbonyl)picolinamide] showed a concentration for a half-maximal effect (EC50) of less than 500 nM.
Turning to `COc1ccc(C(=O)C2CCN(C(=O)c3ccc(C(=O)NC4CCN(Cc5cc(F)cc(F)c5)CC4)nc3)CC2)cc1` [Compound 287, N-(1-(3,5-difluorobenzyl)piperidin-4-yl)-5-(4-(4-methoxybenzoyl)piperidine-1-carbonyl)picolinamide], the half-maximal effective concentration (EC50) is less than 500 nM.
`COc1ccc(C(=O)C2CCN(C(=O)c3ccc(C(=O)NCCOc4ccc(F)cc4)nc3)CC2)cc1` [Compound 305, N-(2-(4-fluorophenoxy)ethyl)-5-(4-(4-methoxybenzoyl)piperidine-1-carbonyl)picolinamide]: the EC50 is less than 500 nM.
On to `O=C(Nc1ccc(Oc2ccc(F)cc2)nc1)c1ccc(C(=O)N2CCC(C(=O)c3ccc(F)cc3F)CC2)nc1` [Compound 348, 6-(4-(2,4-difluorobenzoyl)piperidine-1-carbonyl)-N-(6-(4-fluorophenoxy)pyridin-3-yl)nicotinamide], for which the 50% effective concentration (EC50) is less than 500 nM.
Turning to `COc1ccc(C(=O)C2CCN(C(=O)c3ccc(C(=O)N[C@H]4CCN(Cc5ccc(C#N)cc5)C[C@@H]4F)cn3)CC2)cc1` [Compound 453, N-((3S,4S)-1-(4-cyanobenzyl)-3-fluoropiperidin-4-yl)-6-(4-(4-methoxybenzoyl)piperidine-1-carbonyl)nicotinamide], the EC50 is less than 500 nM.
For `N#Cc1ccc(CN2CCC(NC(=O)c3cccc(C(=O)NC4CCN(Cc5ccc(C#N)cc5)CC4)n3)CC2)cc1` [Compound 86, N2,N6-bis(1-(4-cyanobenzyl)piperidin-4-yl)pyridine-2,6-dicarboxamide] the value was 1000 to 5000 nM.
To `CC(C)S(=O)(=O)c1ccc(N2CCN(C(=O)c3ccc(C(=O)NC4CCN(Cc5ccc(C#N)cc5)CC4)nc3)CC2)cc1` [Compound 251, N-(1-(4-cyanobenzyl)piperidin-4-yl)-5-(4-(4-(isopropylsulfonyl)phenyl)piperazine-1-carbonyl)picolinamide] belongs less than 500 nM.
`COc1ccc(C(=O)C2CCN(C(=O)c3ccc(C(=O)NC4CCN(Cc5cc(F)cc(F)c5)CC4)cn3)CC2)cc1` [Compound 310, N-(1-(3,5-difluorobenzyl)piperidin-4-yl)-6-(4-(4-methoxybenzoyl)piperidine-1-carbonyl)nicotinamide] registered an EC50 of less than 500 nM.
The molecule `COc1ccc(C(=O)C2CCN(C(=O)c3ccc(C(=O)Nc4ccc(Oc5ccc(C(=O)N(C)C)cc5)nc4)cn3)CC2)cc1` [Compound 480, N-(6-(4-(dimethylcarbamoyl)phenoxy)pyridin-3-yl)-6-(4-(4-methoxybenzoyl)piperidine-1-carbonyl)nicotinamide] registered an EC50 of less than 500 nM.
Turning to `N#Cc1ccc(CN2CCC(NC(=O)c3ccc(C(=O)N4CCC(C(=O)c5ccc(N6CCCC6)cc5)CC4)nc3)CC2)cc1F` [Compound 447, N-(1-(4-cyano-3-fluorobenzyl)piperidin-4-yl)-6-(4-(4-(pyrrolidin-1-yl)benzoyl)piperidine-1-carbonyl)nicotinamide], the concentration for a half-maximal effect (EC50) is less than 500 nM.
On to `N#Cc1ccc(CN2CCC(NC(=O)c3ccc(C(=O)N4CCN(S(=O)(=O)c5ccc(F)cc5)CC4)cn3)CC2)cc1` [Compound 78, N-(1-(4-cyanobenzyl)piperidin-4-yl)-5-(4-(4-fluorophenylsulfonyl)piperazine-1-carbonyl)picolinamide], for which the EC50 is less than 500 nM.
`O=C(NC1CCN(Cc2ccc(F)cc2)CC1)c1ccc(C(=O)N2CC[C@H](Oc3ccc(F)cc3)C2)cn1` [Compound 182, (S)-N-(1-(4-fluorobenzyl)piperidin-4-yl)-5-(3-(4-fluorophenoxy)pyrrolidine-1-carbonyl)picolinamide] gave an EC50 of less than 500 nM.
To `CC(=O)c1ccc(OC2CCN(C(=O)c3ccc(C(=O)NC4CCC(Oc5ccc(C#N)cc5)CC4)cn3)CC2)cc1` (centres unmarked) [Compound 402, 6-(4-(4-acetylphenoxy)piperidine-1-carbonyl)-N-(4-(4-cyanophenoxy)cyclohexyl)nicotinamide] belongs less than 500 nM; to `CC(=O)Nc1cccc(OC2CCN(C(=O)c3ccc(C(=O)NC4CCN(Cc5ccc(C#N)cc5)CC4)cn3)CC2)c1` [Compound 411, 6-(4-(3-acetamidophenoxy)piperidine-1-carbonyl)-N-(1-(4-cyanobenzyl)piperidin-4-yl)nicotinamide], 1000 to 5000 nM; to `COc1ccc(OC2CCN(C(=O)c3ccc(C(=O)N[C@H]4CC[C@@H](Oc5ccc(C(F)(F)F)cc5)CC4)nc3)CC2)cc1` [Compound 191, 5-(4-(4-methoxyphenoxy)piperidine-1-carbonyl)-N-((cis)-4-(4-(trifluoromethyl)phenoxy)cyclohexyl) picolinamide], less than 500 nM.
Consider `N#Cc1ccc(CN2CCC(NC(=O)c3ccc(C(=O)N4CCC(Oc5ccc(F)c(F)c5)CC4)cn3)CC2)cc1` [Compound 158, N-(1-(4-cyanobenzyl)piperidin-4-yl)-5-(4-(3,4-difluorophenoxy)piperidine-1-carbonyl)picolinamide], for which the EC50 was less than 500 nM.
To `O=C(Nc1ccc(Oc2ccc(F)cc2)cc1)c1ccc(C(=O)N2CCN(Cc3ccc(F)cc3)CC2)cn1` [Compound 60, 5-(4-(4-fluorobenzyl)piperazine-1-carbonyl)-N-(4-(4-fluorophenoxy)phenyl)picolinamide] belongs less than 500 nM; to `N#Cc1ccc(CN2CCC(NC(=O)c3ccc(N4CCC(C(=O)c5ccc(Cl)cc5)CC4)cn3)CC2)cc1` [Compound 266, 5-(4-(4-chlorobenzoyl)piperidin-1-yl)-N-(1-(4-cyanobenzyl)piperidin-4-yl)picolinamide], less than 500 nM; to `COc1ccc(OC2CCN(C(=O)c3ccc(C(=O)Nc4ccc(Oc5ccc(F)cc5)nc4)nc3)CC2)cc1` [Compound 70, 5-(4-(4-methoxyphenoxy)piperidine-1-carbonyl)-N-(6-(4-fluorophenoxy)pyridin-3-yl)picolinamide], less than 500 nM.
The molecule `CS(=O)(=O)c1ccc(C(=O)C2CCN(C(=O)c3ccc(C(=O)NC4CCN(Cc5ccc(F)cc5)CC4)cn3)CC2)cc1` [Compound 222, N-(1-(4-fluorobenzyl)piperidin-4-yl)-6-(4-(4-(methylsulfonyl)benzoyl)piperidine-1-carbonyl)nicotinamide] displayed an EC50 of 1000 to 5000 nM.
For the molecule `O=C(N[C@@H]1CCNC[C@@H]1F)c1ccc(C(=O)N2CCN(Cc3ccc(F)cc3)CC2)cn1` (relative stereo) [Compound 102, 5-(4-(4-fluorobenzyl)piperazine-1-carbonyl)-N-(cis-3-fluoropiperidin-4-yl)picolinamide], the EC50 was in the range of 5000 to 10000 nM.
For `N#Cc1ccc(CN2CCC(NC(=O)c3ccc(C(=O)N4CCC(Oc5ccc(C#N)c(Cl)c5)CC4)cn3)CC2)cc1` [Compound 156, 5-(4-(3-chloro-4-cyanophenoxy)piperidine-1-carbonyl)-N-(1-(4-cyanobenzyl)piperidin-4-yl)picolinamide] the value was less than 500 nM; for `O=C(c1ccc(C(=O)N2CCN(Cc3ccccc3)CC2)nc1)N1CCN(Cc2ccccc2)CC1` [Compound 73, pyridine-2,5-diylbis((4-benzylpiperazin-1-yl)methanone)], 5000 to 10000 nM.

A word on the EC50: it is the concentration giving half of the maximal effect.
